{"source": "patent US11274332B2", "about": "“Methods of administering 3,4-diaminopyridine” (SERB SA, priority 2011, dated 2022)", "assay": "Food-effect crossover study, adverse events after single 20 mg amifampridine phosphate in healthy subjects (Examples 10, 11)", "assay_type": "in vivo", "protocol": "This was a randomized, open-label, 2-treatment, 2-period crossover study with 44 completed subjects to assess the safety, tolerability, and the effect of food on the relative bioavailability of a single dose of amifampridine phosphate.\nSafety was evaluated for all subjects who take at least one dose of 3,4-DAP. Safety was evaluated by recording the incidence of adverse events (AEs), physical examination, vital signs, concomitant medications, clinical laboratory assessments, and 12-lead electrocardiogram (ECG).\nAnalysis for the following safety parameters was carried out on the Safety Population: AEs which included all AEs, AEs by severity, drug-related AEs, deaths, SAEs, AEs leading to study discontinuation, and most frequent AEs, standard clinical laboratory tests, vital signs, ECG measurements, routine physical examinations, and prior and concomitant medications. The cut-off for frequency of AEs reported was determined based on the data. No formal statistical testing was performed for the safety analyses; only descriptive statistics were provided. Appropriate descriptive statistics for the safety data were determined using SAS Version 9.2.\nAEs were coded according to the Medical Dictionary for Regulatory Activities (MedDRA; Version 13.0). […] The occurrence of AEs was assessed continuously from the time the subject signed the VID and consent. The reporting period for non-serious AEs was from the first dose to the final study visit. The investigator determined the severity of each event and the relationship of an AE to the IP and recorded it on the source documents and AE CRF. The nature, time of onset, duration, severity, and relationship to study drug was documented, including documentation of investigator assessment and review. All events were assessed to determine if the AE was serious.\nThe Investigator determined the severity of each event and the event was recorded on the source documents and AE CRF. A coding of “mild” meant there was no limitation of usual activities, “moderate” meant there was some limitation of usual activities, “severe” meant there was an inability to carry out usual activities.\nThe reporting period for AEs that met the criteria of an SAE began from the time of signing the VID and consent form through follow-up or early termination. […] Clinical Laboratory Assessments"}
{"smiles": "Nc1ccncc1N", "note": "[3,4-DAP, 3,4-diaminopyridine]", "values": [{"measurement": "paraesthesias among the 93 drug-related AEs: % of events", "setting": "Overall", "value": 54, "unit": "%"}, {"measurement": "paraesthesias among the 93 drug-related AEs: events", "setting": "Overall", "value": 50}, {"measurement": "Abdominal Pain, drug-related AE: events", "setting": "Overall N=47", "value": 3}, {"measurement": "Dizziness, drug-related AE: events", "setting": "Overall N=47", "value": 7}, {"measurement": "Dysgeusia, drug-related AE: events", "setting": "Overall N=47", "value": 3}, {"measurement": "Fatigue, drug-related AE: events", "setting": "Overall N=47", "value": 4}, {"measurement": "Gastrointestinal Disorders Total, drug-related AE: % of subjects", "setting": "Overall N=47", "value": 19, "unit": "%"}, {"measurement": "Gastrointestinal Disorders Total, drug-related AE: events", "setting": "Overall N=47", "value": 12}, {"measurement": "Gastrointestinal Disorders Total, drug-related AE: subjects", "setting": "Overall N=47", "value": 9}, {"measurement": "Headache, drug-related AE: events", "setting": "Overall N=47", "value": 5}, {"measurement": "Hypoaesthesia Oral, drug-related AE: events", "setting": "Overall N=47", "value": 6}, {"measurement": "Nausea, drug-related AE: events", "setting": "Overall N=47", "value": 4}, {"measurement": "Nervous System Disorders Total, drug-related AE: % of subjects", "setting": "Overall N=47", "value": 57, "unit": "%"}, {"measurement": "Nervous System Disorders Total, drug-related AE: events", "setting": "Overall N=47", "value": 74}, {"measurement": "Nervous System Disorders Total, drug-related AE: subjects", "setting": "Overall N=47", "value": 27}, {"measurement": "Paraesthesia Oral, drug-related AE: events", "setting": "Overall N=47", "value": 30}, {"measurement": "Paraesthesia, drug-related AE: events", "setting": "Overall N=47", "value": 20}]}
